Test [1] deals with A/Hanoi/UT30408(clone 7)/2005 (H5N1). Also on record: species or system mice (Balb/c). The note with it: mouse, in vivo.
Test [2] relates to H5N1 influenza virus A/Hanoi/30408/2005 (clone 7), oseltamivir sensitive strain. Put plainly: microbe, parasite or virus in culture. In kind it is cell-based.

pIC50: −log10 of the molar value. Read-outs that look alike come from different tables or passages of the source.

For the compound “5-Acetamido-4-guanidino-9-O-octanoyl-2,3,4,5-tetradeoxy-7-O-methyl-D-glycero-D-galacto-non-2-enopyranosoic acid [Compound of Preparation Example 1]”, in test [1], the “number of mice surviving, Day 10” value is recorded as 7.

`CO[C@@H]([C@@H]1OC(C(=O)O)=C[C@H](NC(=N)N)[C@H]1NC(C)=O)[C@H](O)CO` [Compound of Preparation Example 2, 5-Acetamido-4-guanidino-2,3,4,5-tetradeoxy-7-O-methyl-D-glycero-D-galacto-non-2-enopyranosoic acid]: the IC50 in test [2] (Influenza A virus, H5N1, MDCK, read-out: Viral Proliferation Inhibitory Activity (IC50, nM)) was determined as 0.43 nM.

Regarding `CC(=O)N[C@H]1[C@H]([C@H](O)[C@H](O)CO)OC(C(=O)O)=C[C@@H]1N=C(N)N` [Zanamivir, reference compound], the pIC50 in test [2] (read-out: Viral Proliferation Inhibitory Activity (IC50)) is 8.48.
